Reference: patent US5641804A, “Fungicidal compound comprising a cyclic polylactone” (Novo Nordisk A/S, priority 1992, dated 1997)
Values after ≈ are worked out from the molar mass of the structure shown.

Assays:
[1] = tested on: Botrytis cinerea; experiment: Agar well inhibition zone, Botrytis cinerea, mycelium plates (Bc1); type: cell-based; design: key to inhibition zone Bc1: clear; diffuse; very diffuse; +: very weak; conditions: 15 μl per well, 3 days at 25° C.
Procedure: (§1) Botrytis cinerea (Bc) grey mould
(§2) Each of the above mentioned 9 pathogens were separately innoculated into 100 ml of potato dextrose (PD) bouillon and shaken at 200 rpm at 25° C. for 7 days. The mycelium was harvested and homogenized for about 10 seconds in a Warring blender and 1-5 ml of the blended mycelium was transferred to petri dishes with a diameter of 14 cm. […] 20 ml of potato dextrose agar (PDA) having a temperature of 45° C. were poured into each of the petri dishes and thorougly mixed with the blended mycelium present therein. When the agar had solidified, wells of a diameter of 4 mm were punched in the agar, and 15 μl of test solutions containing varicus concentrations of compound Ia, Ib and IIa dissolved in ethanol was applied to each well. The plates were incubated for three days at 25° C. and the inhibition zones measured (in mm). […]

[2] = tested on: Botrytis cinerea; experiment: Agar well inhibition zone, Botrytis cinerea, plates made from spores (Bc2); type: cell-based; conditions: for appearance of Bc zones / time of incubation after which Bc zones could be seen: Bc plates; for zone of inhibition at 500 µg/mL: 0.5 mg/ml; for zone of inhibition at 1000 µg/mL: 1.0 mg/ml
Procedure: as §1
(§3) Each of the above mentioned 9 pathogens were separately innoculated into 100 ml of potato dextrose (PD) bouillon and shaken at 200 rpm at 25° C. for 7 days. The mycelium was harvested and homogenized for about 10 seconds in a Warring blender and 1-5 ml of the blended mycelium was transferred to petri dishes with a diameter of 14 cm. […] 20 ml of potato dextrose agar (PDA) having a temperature of 45° C. were poured into each of the petri dishes and thorougly mixed with the blended mycelium present therein. When the agar had solidified, wells of a diameter of 4 mm were punched in the agar, and 15 μl of test solutions containing varicus concentrations of compound Ia, Ib and IIa dissolved in ethanol was applied to each well. The plates were incubated for three days at 25° C. and the inhibition zones measured (in mm).
(§4) The experiments were repeated and in the second run, Bc plates were made from Bc spores (the plates were termed Bc2) as such plates may result in a more uniform growth.

[3] = tested on: Pyrenophora teres; experiment: Agar well inhibition zone, Pyrenophora teres (Pt); type: cell-based; design: key to inhibition zone Pt: clear; diffuse; very diffuse; +: very weak; conditions: 15 μl per well, 3 days at 25° C.; for zone of inhibition at 500 µg/mL / zone of inhibition at 1000 µg/mL / zone of inhibition at 100 µg/mL: Pyrenophora teres, 72 h; for zone of inhibition at 500 µg/mL: 0.5 mg/ml; for zone of inhibition at 1000 µg/mL: 1.0 mg/ml
Procedure: Pyrenophora teres (Pt) net blotch disease
as §2

[4] = tested on: Phoma betae; experiment: Agar well inhibition zone, Phoma betae (Pb); type: cell-based; conditions: 15 μl per well, 3 days at 25° C.; for zone of inhibition at 500 µg/mL: 0.5 mg/ml
Procedure: Phoma betae (Pb) seedling black rot, black leg
as §2

[5] = tested on: Ascochyta pisi; experiment: Agar well inhibition zone, Ascochyta pisi (Ap); type: cell-based; design: key to inhibition zone Ap: clear; diffuse; very diffuse; +: very weak; conditions: 15 μl per well, 3 days at 25° C.; for zone of inhibition at 1000 µg/mL: 1.0 mg/ml
Procedure: Ascochyta pisi (Ap) leaf, stem and pod rot
as §2

[6] = tested on: Phoma lingam; experiment: Agar well inhibition zone, Phoma lingam (Pl); type: cell-based; design: key to inhibition zone P1: clear; diffuse; very diffuse; +: very weak; conditions: 15 μl per well, 3 days at 25° C.; for zone of inhibition at 1000 µg/mL: 1.0 mg/ml
Procedure: Phoma lingam (Pl) canker and dry rot
as §2

[7] = tested on: Alternaria alternata; experiment: Agar well inhibition zone, Alternaria alternata (Aa); type: cell-based; conditions: 15 μl per well, 3 days at 25° C.; for zone of inhibition at 500 µg/mL: 0.5 mg/ml; for zone of inhibition at 1000 µg/mL: 1.0 mg/ml
Procedure: Alternaria alternata (Aa) black mould coverings, leaf spot
as §3, §4

[8] = tested on: Sclerotinia sclerotiorum; experiment: Agar well inhibition zone, Sclerotinia sclerotiorum (Ss); type: cell-based; design: key to inhibition zone Ss: clear; diffuse; very diffuse; +: very weak; conditions: 15 μl per well, 3 days at 25° C.
Procedure: Sclerotinia sclerotiorum (Ss) white mould disease, stem rot
as §2

[9] = tested on: Monilinia fructigena; experiment: Agar well inhibition zone, Monilinia fructigena (Mf); type: cell-based; conditions: 15 μl per well, 3 days at 25° C.; for zone of inhibition at 500 µg/mL: 0.5 mg/ml; for zone of inhibition at 1000 µg/mL: 1.0 mg/ml
Procedure: Monilinia fructigena (Mf) brown rot, fruit rot
as §2

[10] = tested on: plant pathogenic fungi; experiment: In vitro fungicidal activity spectrum over the pathogens tested; type: cell-based
Procedure: The following pathogens were used:
as §3, §4

[11] = tested on: mouse peritoneal macrophage; experiment: Mouse peritoneal macrophage assay, cellular ATP (viability); type: cell-based
[12] = tested on: mouse peritoneal macrophage; experiment: Mouse peritoneal macrophage assay, chemiluminescence (phagocytosis); type: cell-based
[13] = tested on: Botrytis cinerea; experiment: Fungicidal activity in vivo against Botrytis cinerea on sprayed plants; conditions: spray to run off, assessed after 6 days
Procedure: Activity of the compounds Ia and Ib against Botrytis cinerea Host: Lycopersicon esculentum (tomato, var. First in Field) […] plants (5 weeks old) were sprayed to run off with liquid solutions using a handhold sprayer (Bink Bullows 900). The solution (70% EtOH) had different concentrations of the compounds Ia and Ib. The plants were kept 24 hours in a green house to dry before they were inoculated with a spore suspension containing 1×10^5 spores/ml in 25% grape juice. The inoculation was carried out with a handhold atomizer (Wagner, Pico Bel). The plants were then incubated (16 hours light (1000 lux) and 8 hours dark) at 15°-20° C. in clear polyethylene bags to raise the relative humidity to 95-100%. After 6 days the assessment was done.

[14] = tested on: nerve growth factor; conditions: cited from earlier work
[15] = 0.1 mg/ml, 15 μl per well, 3 days at 25° C., plates from spores
[16] = Botrytis cinerea, 72 h, 15 μl per well, 3 days at 25° C., plates from spores
[17] = Neocamarosporium betae, 72 h, 0.1 mg/ml
[18] = Ascochyta pisi, 72 h, 0.1 mg/ml
[19] = Plenodomus lingam, 72 h, read-out: inhibition zone P1
[20] = Botrytis cinerea, 72 h, 0.1 mg/ml

SMILES | inhibition zone Bc2 [2, 15] | appearance of Bc zones [2] | time of incubation after which Bc zones could be seen [2] | zone of inhibition at 500 µg/mL [2, 16] | zone of inhibition at 1000 µg/mL [2, 16] | zone of inhibition at 500 µg/mL [3] | zone of inhibition at 1000 µg/mL [3] | zone of inhibition at 100 µg/mL [4, 17] | zone of inhibition at 500 µg/mL ([4]; Neocamarosporium betae, 72 h) | zone of inhibition at 100 µg/mL [5, 18] | zone of inhibition at 1000 µg/mL ([5]; Ascochyta pisi, 72 h) | inhibition zone P1 ([6]; 0.1 mg/ml) | zone of inhibition at 1000 µg/mL [6, 19] | zone of inhibition at 500 µg/mL ([7]; Alternaria alternata, 72 h) | zone of inhibition at 1000 µg/mL ([7]; Alternaria alternata, 72 h) | inhibition zone Ss ([8]; 0.1 mg/ml) | inhibition zone Mf ([9]; 0.1 mg/ml) | zone of inhibition at 500 µg/mL ([9]; Monilinia fructigena, 72 h) | zone of inhibition at 1000 µg/mL ([9]; Monilinia fructigena, 72 h) | IC50 [11] | further results
C[C@@H]1Cc2cc(O)cc(O)c2C(=O)O[C@H](C)CC(=O)OC[C@@H](O)CC(=O)O[C@H](C)Cc2cc(O)cc(O)c2C(=O)O[C@H](C)CC(=O)O1 [Compound IIa] | 30d mm | very diffuse | ≥ 3 days | 37 mm | 45 mm | 0 mm | 0 mm | 0 mm | 0 mm | 0 mm | 0 mm | 31d mm | 18 mm | 0 mm | 0 mm | 40d mm | 40v | 40 mm | 40 mm | < 10 µg/mL | inhibition zone Bc1 ([1]; 0.1 mg/ml): +; inhibition zone Bc1 ([1]; 0.5 mg/ml): +; inhibition zone Bc1 ([1]; 1.0 mg/ml): +; inhibition zone Pt ([3]; 0.1 mg/ml): +; zone of inhibition at 500 µg/mL ([5]; Ascochyta pisi, 72 h, 0.5 mg/ml): 0 mm; zone of inhibition at 500 µg/mL ([6]; Plenodomus lingam, 72 h, 0.5 mg/ml, read-out: inhibition zone P1): 14 mm; inhibition zone Ss ([8]; 0.5 mg/ml): +; inhibition zone Ss ([8]; 1.0 mg/ml): +; number of pathogens against which compound was active ([10]; with respect to Bc only for the plate containing spores): 5 pathogens; IC50 [12]: < 10 µg/mL
C[C@@H]1CC(=O)O[C@H](C)Cc2cc(O)cc(O)c2C(=O)O[C@H](C)CC(=O)O[C@H](C)Cc2cc(O)cc(O)c2C(=O)O[C@H](C)CC(=O)O1 [Compound Ib] |  | very clear | ≤ 2 days | 26 mm | 30 mm | 17 mm | 33 mm | 0 mm | 17 mm | 0 mm | 15 mm |  | 12 mm | 15 mm | 17 mm |  |  | 0 mm | 25 mm | 6 µg/mL (≈ 9.28 µM) | zone of inhibition at 100 µg/mL [1, 20]: 0 mm; zone of inhibition at 500 µg/mL ([1]; Botrytis cinerea, 72 h, 0.5 mg/ml): 0 mm; zone of inhibition at 1000 µg/mL ([1]; Botrytis cinerea, 72 h, 1.0 mg/ml): 0 mm; zone of inhibition at 100 µg/mL ([2]; Botrytis cinerea, 72 h, 0.1 mg/ml, 15 μl per well, 3 days at 25° C., plates from spores): 0 mm; zone of inhibition at 100 µg/mL ([3]; 0.1 mg/ml): 0 mm; zone of inhibition at 1000 µg/mL ([4]; Neocamarosporium betae, 72 h, 1.0 mg/ml): 20 mm; inhibition zone Ap ([5]; 0.5 mg/ml): +; inhibition zone P1 ([6]; 0.5 mg/ml): +; zone of inhibition at 100 µg/mL ([6]; Plenodomus lingam, 72 h, 0.1 mg/ml, read-out: inhibition zone P1): 0 mm; zone of inhibition at 100 µg/mL ([7]; Alternaria alternata, 72 h, 0.1 mg/ml): 0 mm; zone of inhibition at 100 µg/mL ([8]; Sclerotinia sclerotiorum, 72 h, 0.1 mg/ml): 0 mm; zone of inhibition at 500 µg/mL ([8]; Sclerotinia sclerotiorum, 72 h, 0.5 mg/ml): 0 mm; zone of inhibition at 1000 µg/mL ([8]; Sclerotinia sclerotiorum, 72 h, 1.0 mg/ml): 0 mm; zone of inhibition at 100 µg/mL ([9]; Monilinia fructigena, 72 h, 0.1 mg/ml): 0 mm; activity spectrum ([10]; all pathogens tested, Table 2): active, to a higher or lower degree, towards all of the pathogens tested; protection ([13]; 36 ppm): approx. 50%; protection ([13]; 360 ppm): approx. 50%; IC50 [12]: 6 µg/mL (≈ 9.28 µM)
C[C@@H]1Cc2cc(O)cc(O)c2C(=O)O[C@H](C)CC(=O)OC[C@@H](O)CC(=O)O[C@H](C)Cc2cc(O)cc(O)c2C(=O)O[C@H](C)CC(=O)O1 [IIIa] | 0 mm |  |  |  |  |  |  |  |  |  |  | 0 mm |  |  |  | 0 mm | 0 mm |  |  |  | zone of inhibition at 100 µg/mL [1, 20]: 0 mm; zone of inhibition at 100 µg/mL ([3]; 0.1 mg/ml): 0 mm; inhibition zone Pb ([4]; 0.1 mg/ml): 0 mm; inhibition zone Ap ([5]; 0.1 mg/ml): 0 mm; inhibition zone Aa ([7]; 0.1 mg/ml): 0 mm
CC1Cc2cc(O)cc(O)c2C(=O)OC(C)CC(=O)OC(C)Cc2cc(O)cc(O)c2C(=O)OC(C)CC(=O)OC(CO)CC(=O)O1 (centres unmarked) [NG-012] |  |  |  |  |  |  |  |  |  |  |  |  |  |  |  |  |  |  |  |  | nerve growth factor potentiation [14]: nerve growth factor potentiator
